# Laboratory results taken from US12673022B2, “Drug delivery system using solution” (Kyoto University, priority 2018, dated 2026).
# Key:
# [1] = test system: C57BL/6J mouse right lower limb gastrocnemius; experiment: DNA mutation introduction efficiency using mRosa26 gRNA (T7E1 assay) after local administration; type: in vivo
# Experimental: Cas9 protein (20 μg), mRosa26 gRNA (5 μg), 10×PBS (5 μL) and a 2.0 M aqueous 2′-deoxycytidine solution (6.25 μL) were mixed so as to obtain an aqueous solution having final concentrations of 400 ng/μL Cas9 protein, 100 ng/μL mRosa26 gRNA, 533 mM sodium chloride and 250 mM 2′-deoxycytidine. The concentration of the resultant solution was adjusted to be 533 mM with a 5 M aqueous sodium chloride solution, diluted with UltraPure DNase/RNase-Free Distilled Water up to a liquid volume of 50 μL and incubated at normal temperature for 15 minutes. […] The Cas9 protein herein was subjected to buffer replacement with 250 mM sodium chloride by use of Amicon® Ultra 2 mL Centrifugal Filters and then put in use.
# Cas9 protein (40 μg), mRosa26 gRNA (10 μg), 10×PBS (5 μL), and a […] compound stock solution (25 μL) were mixed so as to obtain final concentrations: 800 ng/μL Cas9 protein, 200 ng/μL mRosa26 gRNA, 533 mM sodium chloride and 250 mM compound. […]
# To the right lower limb gastrocnemius of each of 9 weeks-old male C57BL/6J mice (CLEA Japan, Inc), administration solution 1 or administration solution 2 and PBS (50 μL) were administered. […] The resultant PCR product was purified by QIAquick PCR purification kit (QIAGEN), treated with T7 Endonuclease I (NEB) and analyzed by Agilent 4200 TapeStation (Agilent). […]
# As shown in FIG. 10 and FIG. 11, to find statistical significant difference between GABA and each conditions of the compounds, Dunnett's multiple comparison test using DNA mutation introduction efficiency, Indel (%), and exon skipping efficiency, was carried out. It was determined that if P value is less than 0.05, these is a statistically significant difference. […]
# A solution for transduction containing 2′-deoxycytidine as a compound (A3) and sodium chloride as the (B) salt was prepared. […] Administration solution 1 was locally administered to the mouse right lower limb gastrocnemius and the activity to cleave a target gene was evaluated. […]
# [2] = test system: EGFP reporter cells (C2C12 cells); experiment: EGFP-SSA assay: uptake of Cas9 protein/gRNA complex into cells (EGFP positive rate); type: cell-based, mouse; settings: Example 1; compound 100.0 mM; reaction solution 1 (550 mM sodium chloride, 1 mM HEPES, Cas9 protein/gRNA), 30 minutes
# [3] = test system: EGFP reporter cells (C2C12 cells); experiment: Number of HOECHST cells detected (cell viability) in the EGFP-SSA assay; settings: Example 1, formula (2)
# Experimental: To each of the solutions, a complex of gRNA and Cas9 protein was further dissolved. Mouse myoblasts (C2C12 cells) were contacted with each of the solutions in vitro, and target gene cleavage activity and cell viability were evaluated.
# [4] = test system: EGFP reporter cells (C2C12 cells); experiment: EGFP-SSA assay: uptake of Cas9 protein/gRNA complex into cells (EGFP positive rate); type: cell-based, mouse; settings: Example 1; compound 250.0 mM; reaction solution 1 (550 mM sodium chloride, 1 mM HEPES, Cas9 protein/gRNA), 30 minutes
# From the text: EGFP-SSA assay: an abbreviation of EGFP-single strand annealing assay. The reporter cassette shown in FIG. 1 is inserted in EGFP reporter cells. In the middle of the EGFP sequence of the cassette, MmDMD-Ex51 sequence is inserted. Since the presence of MmDMD-Ex51 sequence, by which EGFP ORF is divided, EGFP protein is not usually translated. However, when target sequence of MmDMD-Ex51 is cleaved by Cas9 protein/gRNA complex, the upstream region (EG part) and the downstream region (FP part) of EGFP ORF are annealed via a homology area into a single strand, with the result that a full-length EGFP ORF emerges to produce EGFP protein. Based on this principle, the ratio of the number of cells producing EGFP is checked by the EGFP-SSA assay. In this manner, the amount of Cas9 protein/gRNA complex delivered to cells can be predicted.
# (§1) Cas9 protein (0.4 μg), tracrRNA (34.18 ng), MmDmd Ex51 crRNA (29.48 ng), a 1 M HEPES buffer (0.05 μL) and a 5 M aqueous sodium chloride solution (5.5 μL) were mixed and diluted with UltraPure DNase/RNase-Free Distilled Water up to a liquid volume of 37.5 μL so as to obtain final concentrations: 8 ng/μL Cas9 protein, 0.68 ng/μL tracrRNA, 0.59 ng/μL MmDmd Ex51 crRNA, 1 mM HEPES, 550 mM sodium chloride, and 250 mM compound. To this solution, a 1000 mM compound solution (12.5 μL) was added and the solution mixture was incubated at normal temperature for 15 minutes.
# as §1, with “buffer (2.5” for “buffer (0.05”, “solution (4.85” for “solution (5.5”, “crRNA, 50” for “crRNA, 1”, “HEPES, 485” for “HEPES, 550”, “minutes. Note that, in the cases where the final concentrations of the compound are 0.69 mM, 25 mM, 100 mM, 125 mM, 160 mM, 200 mM and 500 mM, the compound stock solution was diluted with UltraPure DNase/RNase-Free Distilled Water up to concentrations of 2.76 mM, 100 mM, 400 mM, 500 mM, 640 mM, 800 mM and 2000 mM, respectively, and then, added. […]” for “minutes.”
# Cas9 protein (2.0 μg), tracrRNA (170.9 ng), MmDmd Ex51 crRNA (147.4 ng), a 1 M HEPES buffer (12.5 μL), a 5 M aqueous sodium chloride solution (18.35 μL) and a 1 M aqueous GABA solution (62.5 μL) were mixed, diluted with UltraPure DNase/RNase-Free Distilled Water up to a liquid volume of 250 μL so as to obtain final concentrations: 8 ng/μL Cas9 protein, 0.68 ng/μL tracrRNA, 0.59 ng/μL MmDmd Ex51 crRNA, 50 mM HEPES, 250 mM GABA and 367 mM sodium chloride, and incubated at normal temperature for 15 minutes. Note that the addition amount of the 5 M aqueous sodium chloride solution was changed to 24.25 μL in the case of 485 mM sodium chloride and the addition amount was changed to 27.5 μL in the case of 550 mM sodium chloride, respectively.
Structure (SMILES),"Genome editing (mutation introduction efficiency, indel (%)) ([1]; Example 5, administration solution 1: 250 mM 2′-deoxycytidine, sodium chloride 163, 233, 333, 433 or 533 mM, mRosa26 gRNA/Cas9, 50 μL for 3 consecutive days, FIG. 9)",Compound activity: EGFP positive rate (%) [2] [%],Relative ratio to GABA: Number of HOECHST cells ([3]; compound 100.0 mM vs 250 mM GABA positive control on the same plate),"Genome editing efficiency (indel (%)) compared to 250 mM GABA ([1]; Example 6, administration solution 2: 25 mM or 250 mM 2′-deoxycytidine, 6-phospho-D-gluconic acid, N-carbamyl-L-aspartic acid or 2-deoxy-D-glucose-6-phosphate, 533 mM sodium chloride, 50 μL once, Dunnett's test, FIG. 10)",Relative ratio to GABA: Number of HOECHST cells ([3]; compound 250.0 mM vs 250 mM GABA positive control on the same plate),Compound activity: EGFP positive rate (%) [4] [%]
Nc1ccn([C@H]2C[C@H](O)[C@@H](CO)O2)c(=O)n1 [2′-Deoxycytidine],Genome editing was confirmed,1.10,1.01,,,
"O=CC[C@@H](O)[C@H](O)[C@H](O)COP(=O)(O)O [Oxy-D-glucose-6-phosphate, 2-deoxy-D-glucose-6-phosphate]",,,,statistically significant results compared to GABA,1.06,1.38
